These results are taken from patent US7109193B2, “Tricyclic diazepines tocolytic oxytocin receptor antagonists” (Wyeth, priority 2001, dated 2006).

pIC50: −log10 of the molar value.

The target in the first experiment is T1, human oxytocin receptor (Homo sapiens, UniProt P30559).
T1 construct: host or cells: CHO cells (pcDNA3.1 vector)
T1 sequence (P30559 1-389): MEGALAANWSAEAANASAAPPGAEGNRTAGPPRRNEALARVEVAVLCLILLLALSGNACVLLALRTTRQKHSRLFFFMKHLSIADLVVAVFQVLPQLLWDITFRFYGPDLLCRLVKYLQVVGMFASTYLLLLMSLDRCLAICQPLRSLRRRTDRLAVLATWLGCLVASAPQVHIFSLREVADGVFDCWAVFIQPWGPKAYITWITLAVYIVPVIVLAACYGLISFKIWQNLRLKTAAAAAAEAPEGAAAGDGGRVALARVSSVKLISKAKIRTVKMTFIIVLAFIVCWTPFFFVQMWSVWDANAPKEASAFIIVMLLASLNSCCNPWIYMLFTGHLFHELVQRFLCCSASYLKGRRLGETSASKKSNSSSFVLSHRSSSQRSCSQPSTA
Briefly: Oxytocin binding in Chinese Hamster Ovary cell membranes expressing human oxytocin receptors. The conditions noted are these: 100 nM, CHO cell membranes, [3H]oxytocin, values without parentheses, read-out: OT % inhibition @ 100% nM.
On to `COc1cccc(-c2ccc(C(=O)N3Cc4ccc(C(=O)N(C)CCN(C)C)n4Cc4ccccc43)cc2OC)c1` [Example 95, 10-[(2,3′-Dimethoxy[1,1′-biphenyl]-4-yl)carbonyl]-N-[2-(dimethylamino)ethyl]-N-methyl-10,11-dihydro-5H-pyrrolo[2,1-c][1,4]benzodiazepine-3-carboxamide], for which the inhibition at 0.1 µM worked out at 97%. On the same count and under the same terms, then `COc1cccc(-c2ccc(C(=O)N3Cc4ccc(C(=O)N(C)CCN(C)C)n4Cc4ccccc43)cc2C)c1` [Example 89, N-[2-(Dimethylamino)ethyl]-10-[(3′-methoxy-2-methyl[1,1′-biphenyl]-4-yl)carbonyl]-N-methyl-10,11-dihydro-5H-pyrrolo[2,1-c][1,4]benzodiazepine-3-carboxamide], with 97%; and `COc1cccc(-c2ccc(C(=O)N3Cc4ccc(C(=O)NCCCN(C)C)n4Cc4ccccc43)cc2OC)c1` [Example 82, 10-[(2,3′-Dimethoxy[1,1′-biphenyl]-4-yl)carbonyl]-N-[3-(dimethylamino)propyl]-10,11-dihydro-5H-pyrrolo[2,1-c][1,4]benzodiazepine-3-carboxamide], with 50%; and `COc1cccc(-c2ccc(C(=O)N3Cc4ccc(C(=O)N(C)CCCN(C)C)n4Cc4ccccc43)cc2C)c1` [Example 102, N-[3-(Dimethylamino)propyl]-10-[(3′-methoxy-2-methyl[1,1′-biphenyl]-4-yl)carbonyl]-N-methyl-10,11-dihydro-5H-pyrrolo[2,1-c][1,4]benzodiazepine-3-carboxamide], with 95%.

For the compound `COc1cc(C(=O)N2Cc3ccc(C(=O)N(C)CCCN(C)C)n3Cc3ccccc32)ccc1-c1cccc2ccccc12` [Example 106, N-[3-(Dimethylamino)propyl]-10-[3-methoxy-4-(1-naphthyl)benzoyl]-N-methyl-10,11-dihydro-5H-pyrrolo[2,1-c][1,4]benzodiazepine-3-carboxamide], the inhibition at 0.1 µM is 88%.

For `Cc1ccccc1-c1ccc(C(=O)N2Cc3ccc(C(=O)N(C)CCCN(C)C)n3Cc3ccccc32)cc1` [Example 104, N-[3-(Dimethylamino)propyl]-N-methyl-10-[(2′-methyl[1,1′-biphenyl]-4-yl)carbonyl]-10,11-dihydro-5H-pyrrolo[2,1-c][1,4]benzodiazepine-3-carboxamide], the inhibition at 0.1 µM came out at 96%.

With `COc1ccccc1-c1ccc(C(=O)N2Cc3ccc(C(=O)NCCCN(C)C)n3Cc3ccccc32)cc1OC` [Example 81, 10-[(2,2′-Dimethoxy[1,1′-biphenyl]-4-yl)carbonyl]-N-[3-(dimethylamino)propyl]-10,11-dihydro-5H-pyrrolo[2,1-c][1,4]benzodiazepine-3-carboxamide], the inhibition at 0.1 µM is 43%.

On to `COc1ccccc1-c1ccc(C(=O)N2Cc3ccc(C(=O)N(C)CCCN(C)C)n3Cc3ccccc32)cc1` [Example 103, N-[3-(Dimethylamino)propyl]-10-[(2′-methoxy[1,1′-biphenyl]-4-yl)carbonyl]-N-methyl-10,11-dihydro-5H-pyrrolo[2,1-c][1,4]benzodiazepine-3-carboxamide], for which the inhibition at 0.1 µM was determined as 98%.

The experiment is the same for the next values; noted with them: CHO cell membranes, [3H]oxytocin, values in parentheses, read-out: OT (IC50).
Turning to `COc1ccccc1-c1ccc(C(=O)N2Cc3ccc(C(=O)N4CCN(CCCN(C)C)CC4)n3Cc3ccccc32)cc1C` [Example 245, {4-[3-(Dimethylamino)propyl]-1-piperazinyl}{10-[(2′-methoxy-2-methyl[1,1′-biphenyl]-4-yl)carbonyl]-10,11-dihydro-5H-pyrrolo[2,1-c][1,4]benzodiazepin-3-yl}methanone], the negative-log IC50 (pIC50) is 7.77.

On to `COc1cc(-c2ccccc2C)c(Cl)cc1C(=O)N1Cc2ccc(C(=O)N3CCN(C)CC3)n2Cc2ccccc21` [Example 47, {10-[(6-Chloro-3-methoxy-2′-methyl[1,1′-biphenyl]-4-yl)carbonyl]-10,11-dihydro-5H-pyrrolo[2,1-c][1,4]benzodiazepin-3-yl}(4-methyl-1-piperazinyl)methanone], for which the negative logarithm of the IC50 (pIC50) is 8.18. With `COc1ccccc1-c1ccc(C(=O)N2Cc3ccc(C(=O)N4CCN(C)CC4)n3Cc3ccccc32)cc1` [Example 48, {10-[(2′-Methoxy[1,1′-biphenyl]-4-yl)carbonyl]-10,11-dihydro-5H-pyrrolo[2,1-c][1,4]benzodiazepin-3-yl}(4-methyl-1-piperazinyl)methanone], the negative logarithm of the IC50 (pIC50) is 8.17. Turning to `COc1cc(C(=O)N2Cc3ccc(C(=O)N(C)CCCN(C)C)n3Cc3ccccc32)ccc1-c1ccccc1C(F)(F)F` [Example 21, N-Methyl-[N-(3-dimethylamino)propyl]-10-{[2-methoxy-2′-trifluoromethyl-[1,1′-biphenyl]-4-yl]carbonyl}-10,11-dihydro-5H-pyrrolo[2,1-c][1,4]benzodiazepin-3-carboxamide], the pIC50 was 8.77. Regarding `C=CCN1CCN(C(=O)c2ccc3n2Cc2ccccc2N(C(=O)c2ccc(-c4ccccc4C)c(C)c2)C3)CC1` [Example 220, (4-Allyl-1-piperazinyl){10-[(2,2′-dimethyl[1,1′-biphenyl]-4-yl)carbonyl]-10,11-dihydro-5H -pyrrolo[2,1-c][1,4]benzodiazepin-3-yl}methanone], the negative-log IC50 (pIC50) is 8.14. Consider `COc1cc(-c2ccccc2C)c(Cl)cc1C(=O)N1Cc2ccc(C(=O)N3CCC(N4CCCCC4)CC3)n2Cc2ccccc21` [Example 110, {10-[(6-Chloro-3-methoxy-2′-methyl[1,1′-biphenyl]-4-yl)carbonyl]-10,11-dihydro-5H-pyrrolo[2,1-c][1,4]benzodiazepin-3-yl}[4-(1-piperidinyl)-1-piperidinyl]methanone], for which the pIC50 was 8.10. For `COc1ccccc1-c1ccc(C(=O)N2Cc3ccc(C(=O)N4CCN(CCCN(C)C)CC4)n3Cc3ccccc32)cc1` [Example 246, {4-[3-(Dimethylamino)propyl]-1-piperazinyl}{10-[(2′-methoxy[1,1′-biphenyl]-4-yl)carbonyl]-10,11-dihydro-5H-pyrrolo[2,1-c][1,4]benzodiazepin-3-yl}methanone], the negative-log IC50 (pIC50) is 7.75. Same read-out and setting: to `COc1cc(-c2ccccc2C)c(Cl)cc1C(=O)N1Cc2ccc(C(=O)N(C)CCN(C)C)n2Cc2ccccc21` [Example 86, 10-[(6-Chloro-3-methoxy-2′-methyl[1,1′-biphenyl]-4-yl)carbonyl]-N-[2-(dimethylamino)ethyl]-N-methyl-10,11-dihydro-5H-pyrrolo[2,1-c][1,4]benzodiazepine-3-carboxamide] belongs 8.64. As to `COc1cccc(-c2cc(OC)c(C(=O)N3Cc4ccc(C(=O)N(C)CCCN(C)C)n4Cc4ccccc43)cc2Cl)c1` [Example 99, 10-[(6-Chloro-3,3′-dimethoxy[1,1′-biphenyl]-4-yl)carbonyl]-N-[3-(dimethylamino)propyl]-N-methyl-10,11-dihydro-5H-pyrrolo[2,1-c][1,4]benzodiazepine-3-carboxamide], the negative logarithm of the IC50 (pIC50) was 8.69.

On to `COc1cc(C(=O)N2Cc3cccn3Cc3ccccc32)ccc1-n1c(C)ccc1C` [Example 27, [4-(2,5-Dimethyl-1-H-pyrrol-1-yl)-3-methoxy-phenyl][10,11-dihydro-5H-pyrrolo[2,1-c][1,4]benzodiazepin-10-yl]methanone], for which the negative-log IC50 (pIC50) is 7.74. Consider `COc1cc(-c2ccccc2C)c(Cl)cc1C(=O)N1Cc2ccc(C(=O)N(C)CCCN(C)C)n2Cc2ccccc21` [Example 98, 10-[(6-Chloro-3-methoxy-2′-methyl[1,1′-biphenyl]-4-yl)carbonyl]-N-[3-(dimethylamino)propyl]-N-methyl-10,11-dihydro-5H-pyrrolo[2,1-c][1,4]benzodiazepine-3-carboxamide], for which the pIC50 was 8.61. Same read-out and setting: to `Cc1cc(C(=O)N2Cc3ccc(C(=O)N4CCN(C)CC4)n3Cc3ccccc32)ccc1-c1ccccc1C(F)(F)F` [Example 2, (4-Methyl-piperazin-1-yl)-[10-(2-methyl-2′-trifluoromethyl-[1,1′-biphenyl]-4-yl)-carbonyl]-10,11-dihydro-5H-pyrrolo[2,1-c][1,4]benzodiazepin-3-yl-methanone] belongs 7.90; to `C=CCN1CCN(C(=O)c2ccc3n2Cc2ccccc2N(C(=O)c2cc(Cl)c(-c4ccccc4C)cc2OC)C3)CC1` [Example 219, (4-Allyl-1-piperazinyl){10-[(6-chloro-3-methoxy-2′-methyl[1,1′-biphenyl]-4-yl)carbonyl]-10,11-dihydro-5H-pyrrolo[2,1-c][1,4]benzodiazepin-3-yl}methanone], 7.92.

Turning to `COc1cc(-c2ccccc2Cl)c(Cl)cc1C(=O)N1Cc2ccc(C(=O)N(C)C3CCN(C)CC3)n2Cc2ccccc21` [Example 43, 10-[(2′-Chloro-6-chloro-3-methoxy-[1,1′-biphenyl]-4-yl)carbonyl]-N-methyl-N-(1-methylpiperidin-4-yl)-10,11-dihydro-5H-pyrrolo[2,1-c][1,4]benzodiazepine-3-carboxamide], the negative logarithm of the IC50 (pIC50) was 8.78. Same read-out and setting: then `COc1cccc(-c2ccc(C(=O)N3Cc4ccc(C(=O)N5CCC[C@H]5CN5CCCC5)n4Cc4ccccc43)cc2C)c1` [Example 263, {10-[(3′-Methoxy-2-methyl[1,1′-biphenyl]-4-yl)carbonyl]-10,11-dihydro-5H-pyrrolo[2,1-c][1,4]benzodiazepin-3-yl}[(2S)-2-(1-pyrrolidinylmethyl)pyrrolidinyl]methanone], with 8.64; and `Cc1cc(C(=O)N2Cc3ccc(C(=O)N(C)CCCN(C)C)n3Cc3ccccc32)ccc1-c1ccccc1C(F)(F)F` [Example 97, N-[3-(Dimethylamino)propyl]-N-methyl-10-{[2-methyl-2′-(trifluoromethyl)[1,1′-biphenyl]-4-yl]carbonyl}-10,11-dihydro-5H-pyrrolo[2,1-c][1,4]benzodiazepine-3-carboxamide], with 8.15.
